# Results: paper PMC10580381 (ACS Pharmacology & Translational Science, 2023)
# Values joined by “and” are separate entries in the source; they are usually repeats but may differ in a detail not shown here. Identical values can stand only once. “Also recorded” adds a separate entry of the source.
# Assays:
# α-tubulin acetylation = experiment: Western blot of α-tubulin acetylation in H1975 cells; type: cell-based, human; conditions: flunarizine up to 10 μM, 24 h
# Experimental: After the cancer cells were treated with the designated drug candidates, they were harvested in lysis buffer (0.05 M HEPES, 0.15 M NaCl, 2 mM EDTA, 10% v/v glycerol, and 1% v/v Triton X-100, pH 7.4) supplemented with protease and phosphatase inhibitors. Sodium dodecyl sulfate poly(acrylamide) gel electrophoresis (SDS-PAGE) was used to separate the different proteins in the whole cell lysates, which were then transferred to a poly(vinylidene difluoride) membrane for immunoblot analysis using different specific antibodies (acetylated histone H3, acetylated α-tubulin, histone H3, or GAPDH; Cell Signaling Technology). The bands corresponding to specific proteins of interest were visualized by using the WesternBright ECL HRP substrate (Advansta, San Jose, California). A chemiluminescent Western blot signal was detected and analyzed using a ChemiDoc MP system (Bio-Rad Laboratories, Hercules, California).
# Bim (BCL2L11) = experiment: Real-time PCR of Bim expression in H1975; type: cell-based, human; conditions: H1975, 24 h, flunarizine 2.5, 5, or 10 μM or SAHA 0.25, 0.5, or 1 μM; all concentrations tested
# Experimental: (§1) Reverse transcription was performed using 1 μg of total RNA sample with the PrimeScript First Strand cDNA Synthesis Kit (TaKaRa Biomedical Technology) at 37 °C for 10 min. The cDNA was then amplified by real-time PCR to determine the relative expression of p27^Kip1 and BIM using the KAPA SYBR FAST qPCR kit (KapaBiosystems, Wilmington, Massachusetts) with a LightCycler 480 Instrument I instrument (Roche Applied Science, Indianapolis, Indiana). The house-keeping gene GAPDH was also measured for normalization. Specific primer sequences used in the PCR reactions are p27^Kip1, forward 5′-[…]-3′ and reverse 5′-[…]-3′; Bim, forward 5′-[…]-3′ and reverse 5′-[…]-3′; and GAPDH, forward 5′-[…]-3′ and reverse 5′-[…]-3′. The PCR temperature program was set at 95 °C for 5 min, followed by 35 cycles of 95 °C for 10 s and 60 °C for 10 s. The fluorescent signal was detected at the end of the PCR elongation step of every cycle to keep track of the amount of amplified DNA. ΔCt was calculated by subtracting the Ct of GAPDH from the Ct of Bim or p27^Kip1. Fold change in gene expression was analyzed by the 2^–ΔΔCt method.
# H1975 cells = conditions: flunarizine alone 5 or 10 μM, 24 h (Figure 3)
# Experimental: Afterward, ethanol was discarded, and the fixed cells were incubated with RNase I (25 μg/mL) at 37 °C for 30 min. Then, the cells were stained with propidium iodide (50 μg/mL) at room temperature for at least 1 h and analyzed by using a flow cytometer (BD LSRFortessa; BD Biosciences). At least 10,000 events were acquired for each sample. ModFit software (Verity Software House, Topsham, Maine) was used to analyze the cell cycle profile.
# p27^Kip1 (CDKN1B) = experiment: Real-time PCR of p27^Kip1 expression in H1975; type: cell-based, human; conditions: H1975, 24 h, flunarizine 2.5, 5, or 10 μM or SAHA 0.25, 0.5, or 1 μM; all concentrations tested
# Experimental: as §1
# A549 cells = experiment: SRB cell proliferation assay, A549; conditions: Homo sapiens, A549, read-out: cell viability (%)
# H820 cells [1] = system: H820 cells
# H820 cells [2] = experiment: cells; conditions: Homo sapiens, NCI-H820, read-out: cell viability (%)
# recombinant human HDAC6 = biological target: T1, recombinant human HDAC6 (Homo sapiens, UniProt Q9UBN7); experiment: biochemical; conditions: IC50 HDAC6, recombinant HDAC6, mean ± SD, three independent experiments
# T1 sequence (Q9UBN7 1-1215): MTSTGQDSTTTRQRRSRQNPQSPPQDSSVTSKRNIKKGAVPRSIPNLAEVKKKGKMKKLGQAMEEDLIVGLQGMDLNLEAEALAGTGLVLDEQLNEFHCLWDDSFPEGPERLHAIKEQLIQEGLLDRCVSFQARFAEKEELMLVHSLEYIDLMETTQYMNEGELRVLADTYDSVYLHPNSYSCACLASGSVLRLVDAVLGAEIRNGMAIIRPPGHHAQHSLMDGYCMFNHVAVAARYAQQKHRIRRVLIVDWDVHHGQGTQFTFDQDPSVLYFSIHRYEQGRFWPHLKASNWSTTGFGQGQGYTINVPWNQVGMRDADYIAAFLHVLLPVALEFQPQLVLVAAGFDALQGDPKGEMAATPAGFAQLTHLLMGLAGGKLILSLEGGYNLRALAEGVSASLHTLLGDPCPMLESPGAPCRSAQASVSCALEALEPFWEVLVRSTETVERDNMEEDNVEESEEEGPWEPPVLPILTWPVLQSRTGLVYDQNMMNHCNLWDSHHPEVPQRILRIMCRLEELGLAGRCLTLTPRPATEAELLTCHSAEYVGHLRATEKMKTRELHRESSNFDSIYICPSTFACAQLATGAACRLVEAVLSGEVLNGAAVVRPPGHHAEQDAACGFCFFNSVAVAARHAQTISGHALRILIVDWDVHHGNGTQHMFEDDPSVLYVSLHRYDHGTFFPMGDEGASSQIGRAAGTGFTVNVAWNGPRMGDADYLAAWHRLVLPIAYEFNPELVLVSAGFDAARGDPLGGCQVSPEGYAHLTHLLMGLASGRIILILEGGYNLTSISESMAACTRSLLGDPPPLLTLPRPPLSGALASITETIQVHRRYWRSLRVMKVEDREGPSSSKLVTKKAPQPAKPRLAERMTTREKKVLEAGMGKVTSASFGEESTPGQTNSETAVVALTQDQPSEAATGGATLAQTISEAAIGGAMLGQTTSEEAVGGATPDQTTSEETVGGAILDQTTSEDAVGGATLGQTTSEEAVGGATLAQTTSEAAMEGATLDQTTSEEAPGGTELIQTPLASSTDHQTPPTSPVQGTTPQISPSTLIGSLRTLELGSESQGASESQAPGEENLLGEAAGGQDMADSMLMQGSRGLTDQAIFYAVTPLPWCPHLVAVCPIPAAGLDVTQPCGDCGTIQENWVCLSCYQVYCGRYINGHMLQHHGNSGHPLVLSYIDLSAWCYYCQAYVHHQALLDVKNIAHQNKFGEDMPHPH
# recombinant human HDAC2 = biological target: T2, recombinant human HDAC2 (Homo sapiens, UniProt Q92769); experiment: Biochemical HDAC activity assay, recombinant HDAC2; conditions: recombinant HDAC2, mean ± SD, three independent experiments
# T2 construct: purchased Creative Biomart
# T2 sequence (Q92769 whole entry): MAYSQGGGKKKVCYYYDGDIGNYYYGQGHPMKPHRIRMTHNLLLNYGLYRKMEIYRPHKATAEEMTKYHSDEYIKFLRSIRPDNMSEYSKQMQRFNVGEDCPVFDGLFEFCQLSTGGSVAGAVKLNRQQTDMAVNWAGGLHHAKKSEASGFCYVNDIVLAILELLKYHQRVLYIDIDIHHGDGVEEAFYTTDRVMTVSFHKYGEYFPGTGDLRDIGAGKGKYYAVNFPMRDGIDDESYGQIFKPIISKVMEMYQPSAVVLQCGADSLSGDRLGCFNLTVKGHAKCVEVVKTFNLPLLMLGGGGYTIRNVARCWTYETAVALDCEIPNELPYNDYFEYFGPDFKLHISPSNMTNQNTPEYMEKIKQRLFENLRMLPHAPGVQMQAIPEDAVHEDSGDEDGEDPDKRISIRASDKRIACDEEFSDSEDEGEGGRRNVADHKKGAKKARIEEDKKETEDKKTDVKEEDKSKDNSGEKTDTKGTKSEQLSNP
smiles,measurement,setting,value
Fc1ccc(C(c2ccc(F)cc2)N2CCN(C/C=C/c3ccccc3)CC2)cc1 [flunarizine],effect on acetylation of α-tubulin,α-tubulin acetylation,did not affect acetylation of α-tubulin; also recorded: did not affect the acetylation
same,Bim expression,Bim (BCL2L11),significantly increase
same,G1 cell cycle arrest,H1975 cells,induce G1 cell cycle arrest
same,p27^Kip1 expression,p27^Kip1 (CDKN1B),significantly increase
same,viability at 2.5 µM,A549 cells,101 ± 5%
same,viability at 5 µM,A549 cells,95 ± 6%
same,viability at 10 µM,A549 cells,102 ± 8%
same,viability,H820 cells [1],89 ± 5%
same,viability at 2.5 µM,H820 cells [2],103 ± 5%
same,viability at 5 µM,H820 cells [2],94 ± 7%
same,IC50,recombinant human HDAC6,~5.6 µM and 5.6 µM
same,IC50,recombinant human HDAC2,0.36 ± 0.026 µM
